Assay results from the NIST ThermoML archive (doi:10.1016/j.jct.2012.05.007).

Conditions: Liquid, Falling or rolling sphere viscometry

CCOS(=O)(=O)[O-].CCn1cc[n+](C)c1 [1-ethyl-3-methylimidazolium ethyl sulfate]
viscosity [mPa·s]
Conditions	10000 kPa	15000 kPa	25000 kPa	50000 kPa	75000 kPa	100000 kPa	125000 kPa	150000 kPa
313.15 K	54.3	56.4	60.9	73.6	88.6	106.6	128.1	153.8
343.15 K	20.2	20.9	22.3	26.1	30.3	35	40.2	46.1
363.15 K	13.2	13.6	14.5	16.8	19.2	22	25	28.2

CCCC[N+]1(C)CCCC1.O=S(=O)([N-]S(=O)(=O)C(F)(F)F)C(F)(F)F
viscosity [mPa·s]
Conditions	10000 kPa	15000 kPa	25000 kPa	50000 kPa	75000 kPa	100000 kPa	125000 kPa	150000 kPa
313.15 K	46.5	49.5	55.9	74.8	98.8	129.4	168.4	218
343.15 K	18.2	19.1	21.1	26.6	33.6	42.1	52.8	66.3
363.15 K	12.2	12.8	14.1	17.7	21.9	26.7	32.2	38.7

COCC[N+]1(C)CCCC1.O=S(=O)([N-]S(=O)(=O)C(F)(F)F)C(F)(F)F
viscosity [mPa·s]
Conditions	10000 kPa	15000 kPa	25000 kPa	50000 kPa	75000 kPa	100000 kPa	125000 kPa	150000 kPa
313.15 K	33.3	35.3	39.5	52	67.5	86.9	111.2	141.5
343.15 K	14.8	15.5	17	21.2	26.2	32.3	39.6	48.5
363.15 K	10.2	10.7	11.6	14.3	17.5	21.2	25.5	30.5
